Read-outs that look alike come from different tables or passages of the source.
Legend:
[1] = Solubility testing (Example 27); format: physicochemical
[2] = Steady state oral/IV rat PK and compound penetration into spine and brain (Example 16); format: in vivo, Sprague-Dawley rats; settings: for concentration at 5 h / AUC(0-inf) / AUC(0-t) / half-life / Cmax: male, Sprague-Dawley; for AUC(0-inf) / AUC(0-t) / half-life / Cmax: plasma
From the text: It is important if one is observing biochemical effects in the spine and brain that one is able to show clear evidence that the compound being tested is in fact able to penetrate to those areas of the body. The present example orally doses compound 118 once per day (SID) for three days to a series of rats. On the third after dosing the rats were then sacrificed after taking blood samples and the level of compound measured in the spine and brain.
Procedure: Twelve (12) male Sprague-Dawley rats were used. Fasting was conducted at least 16 hours prior to dose administration. The animals were placed into 4 groups of 3 animals per group. There was one intravenous (IV) group and three oral gavage (PO) groups (10 mg/Kg, 20 mg/Kg & 40 mg/Kg). The oral (PO) formulation for Groups 2-4 were prepared on the day of dosing at a target concentration of 0.5 mg/mL in 0.5% Methylcellulose (400 cps) to produce a white, homogeneous suspension. The study design is outlined in Table 4:
[…] […] All blood samples were immediately placed on ice until processing. Whole blood samples were centrifuged at 2200×g for 10 minutes in a refrigerated centrifuge (5±3° C.) to isolate plasma. The plasma samples were transferred to individual polypropylene vials and immediately placed on dry ice before storage at nominally −20±5° C. The plasma samples sometime later were then thawed and extracted and analyzed by high pressure liquid chromatography (HPLC) coupled to Mass Spectrometery (MS). Pharmacokinetic parameters were estimated using WinNonlin® pharmacokinetic software (Version No. 5.2.1) using a non-compartmental approach consistent with the PO route of administration. The rodents were then sacrificed. On Day 3, five hours after dosing, animals were euthanized and whole brain and spine were removed, washed with saline and flash frozen until storage at nominally −70° C. before transfer for concentration analysis. The plasma, brain and spinal tissue samples were analyzed for test article concentration using a Research Grade LC-MS/MS Assay.

[3] = tested on: TDP-43 overexpression in Drosophila motor neurons; assay: TDP-43 Drosophila model of ALS, larval turning read-out (Example 23); format: in vivo; settings: 1 microMolar, TDP-43 (wild-type and G298S) overexpression, vs. DMSO vehicle
Description: Procedure: UAS TDP-43 male Drosophila flies were crossed with D42-Gal4 female virgins on fly food containing either DMSO or 1% Compound 118 in dimethyl sulfoxide (DMSO). For DMSO controls, the same volume of DMSO as the corresponding Compound 118 concentration was added. Bromophenol blue was added to a final concentration of around 0.02% to ensure homogeneity. Crosses were made on drug food with three female virgins and two males in each vial and were maintained at 25° C. unless noted. The parents were discarded after 5-7 days and then the vials were screened for adult progeny with straight wings from Day 14 to Day 25. All adults were screened for TDP-43 expression by visualizing the YFP tag. Total number of pupae was counted on Day 25. Percent survival was calculated using the formula (total number of straight-winged adults/total number of pupae)×100. All experiments were performed in triplicate. Read-outs include larval turning assay and pupil lethality screen.
TDP^WT=Wild-type TDP-43, TDP^G298S=Diseases associated G298S mutant expressed in motor neurons. […], ***p<0.001 as compared to DMSO as vehicle.

[4] = tested on: SOD-1 overexpression in Drosophila motor neurons; assay: SOD-1 Drosophila model of ALS, larval turning read-out (Example 24); format: in vivo; settings: 1 microMolar, SOD-1 (wild-type and G85R) overexpression, vs. DMSO vehicle
Description: Procedure: Following the method of Zarnescu and coworkers (Human Molecular Genetics, 24(6), 1741-1754, 2015). UAS SOD-1 male Drosophila flies were crossed with D42-Gal4 female virgins on fly food containing either DMSO or 1% Compound 118 in dimethyl sulfoxide (DMSO). For DMSO controls, the same volume of DMSO as the corresponding Compound 118 concentration was added. Bromophenol blue was added to a final concentration of around 0.02% to ensure homogeneity. Crosses were made on drug food with three female virgins and two males in each vial and were maintained at 25° C. unless noted. The parents were discarded after 5-7 days and then the vials were screened for adult progeny with straight wings from Day 14 to Day 25. All adults were screened for SOD-1 expression. Read-outs involved the larval turning assay.
SOD-1^wt=Wild-type, SOD1^G85R=Diseases associated G85R mutant expressed in motor neurons. […], ***p<0.001 as compared to DMSO vehicle.

[5] = rat, iv, 1 mg/kg, DAY 1, 1 mg/kg IV
[6] = rat, iv, 1 mg/kg, DAY 2, 1 mg/kg IV once per day
[7] = rat, iv, 1 mg/kg, DAY 3, 1 mg/kg IV once per day
[8] = rat, po, 10 mg/kg, DAY 1, 10 mg/kg PO
[9] = rat, po, 10 mg/kg, DAY 2, 10 mg/kg PO once per day
[10] = rat, po, 10 mg/kg, DAY 3, 10 mg/kg PO once per day
[11] = rat, po, 20 mg/kg, DAY 1, 20 mg/kg PO
[12] = rat, po, 20 mg/kg, DAY 2, 20 mg/kg PO once per day
[13] = rat, po, 20 mg/kg, DAY 3, 20 mg/kg PO once per day
[14] = rat, po, 40 mg/kg, DAY 1, 40 mg/kg PO
[15] = rat, po, 40 mg/kg, DAY 2, 40 mg/kg PO once per day
[16] = rat, po, 40 mg/kg, DAY 3, 40 mg/kg PO once per day

For `[2H]C([2H])([2H])c1ccc(C#Cc2ccc(S(=O)(=O)N[C@H](Cc3c[nH]c4ccccc34)C(=O)O)s2)cc1` [Compound 118, (R)-3-(1H-Indol-3-yl)-2-[5-(4-trideuteromethyl-phenylethynyl)-thiophene-2-sulfonylamino]-propionic acid-(D3, 98%)], the “solubility in DMSO, acetone and methanol” value [1] was “soluble”, the solubility in water ([1]; as the free acid) was “poorly soluble” and the “dose linearity in plasma” value ([2]; 10, 20 and 40 mg/Kg oral doses, rat) was “exhibited dose linearity in plasma”. It also gave a concentration at 5 h ([2]; brain, 10-40 mg/Kg daily oral dose, Day 3, rat, highest level at 40 mg/Kg, read-out: Compound level in the brain) of 30 to 84 ng/mL, a concentration at 5 h ([2]; rat, brain, Day 3, five hours after dosing, 10 mg/kg PO once per day, read-out: Brain) of 30.2 ng/mL and a concentration at 5 h ([2]; rat, brain, Day 3, five hours after dosing, 20 mg/kg PO once per day, read-out: Brain) of 42.1 ng/mL. The concentration at 5 h ([2]; rat, brain, Day 3, five hours after dosing, 40 mg/kg PO once per day, read-out: Brain) was 84.6 ng/mL, the AUC(0-inf) [2, 5] was 1820 ng·h/mL and the AUC(0-t) [2, 5] was 1810 ng·h/mL. It also gave a half-life [2, 5] of 58.2 min, an AUC(0-inf) [2, 6] of 1170 ng·h/mL and an AUC(0-t) [2, 6] of 1170 ng·h/mL. It also gave a half-life [2, 6] of 56.2 min, an AUC(0-inf) [2, 7] of 1720 ng·h/mL and an AUC(0-t) [2, 7] of 1650 ng·h/mL. The half-life [2, 7] was 53.4 min, the AUC(0-inf) [2, 8] was 3880 ng·h/mL and the AUC(0-t) [2, 8] was 3770 ng·h/mL. The Cmax [2, 8] was 1170 ng/mL, the half-life [2, 8] was 77.4 min and the AUC(0-inf) [2, 9] was 4480 ng·h/mL. It also gave an AUC(0-t) [2, 9] of 4390 ng·h/mL, a Cmax [2, 9] of 1340 ng/mL and a half-life [2, 9] of 74.4 min. The AUC(0-inf) [2, 10] was 12600 ng·h/mL, the AUC(0-t) [2, 10] was 4010 ng·h/mL and the Cmax [2, 10] was 1450 ng/mL. For the same compound, the half-life [2, 10] was 95.4 min, the AUC(0-inf) [2, 11] was 6520 ng·h/mL and the AUC(0-t) [2, 11] was 6410 ng·h/mL. For the same compound, the Cmax [2, 11] was 2140 ng/mL, the half-life [2, 11] was 72 min and the AUC(0-inf) [2, 12] was 4730 ng·h/mL. For the same compound, the AUC(0-t) [2, 12] was 4650 ng·h/mL, the Cmax [2, 12] was 2150 ng/mL and the half-life [2, 12] was 76.8 min. The AUC(0-inf) [2, 13] was 10100 ng·h/mL, the AUC(0-t) [2, 13] was 8820 ng·h/mL and the Cmax [2, 13] was 3850 ng/mL. For the same compound, the half-life [2, 13] was 61.2 min, the AUC(0-inf) [2, 14] was 15800 ng·h/mL and the AUC(0-t) [2, 14] was 15600 ng·h/mL. For the same compound, the Cmax [2, 14] was 5020 ng/mL, the half-life [2, 14] was 60.6 min and the AUC(0-inf) [2, 15] was 12200 ng·h/mL. It also gave an AUC(0-t) [2, 15] of 12200 ng·h/mL, a Cmax [2, 15] of 5570 ng/mL and a half-life [2, 15] of 61.2 min. It also gave an AUC(0-inf) [2, 16] of 15800 ng·h/mL, an AUC(0-t) [2, 16] of 15600 ng·h/mL and a Cmax [2, 16] of 5020 ng/mL. For the same compound, the half-life [2, 16] was 60.6 min, the concentration at 5 h ([2]; rat, spine, Day 3, five hours after dosing, 10 mg/kg PO once per day, read-out: Spine) was 15.6 ng/mL and the concentration at 5 h ([2]; rat, spine, Day 3, five hours after dosing, 20 mg/kg PO once per day, read-out: Spine) was 18.3 ng/mL. The concentration at 5 h ([2]; rat, spine, Day 3, five hours after dosing, 40 mg/kg PO once per day, read-out: Spine) was 31 ng/mL, the concentration at 5 h ([2]; spine, 10-40 mg/Kg daily oral dose, Day 3, rat, highest level at 40 mg/Kg, read-out: Compound level in the spine) was 15 to 31 ng/mL and the “locomotive defects via larval turning times” value [3] was “able to mitigate locomotive defects”. For the same compound, the “locomotive defects via larval turning times” value [4] was “able to mitigate locomotive defects”.

Reference: patent publication US12589090B2, “Compounds and methods for the treatment of degenerative disorders” (Aquilus Pharmaceuticals, Inc., priority 2019, dated 2026)
